Earlier results, collected in patent US10913983B2, “Sensitivity markers and uses for CDK7 inhibitors in breast cancers” (UNIVERSITY OF SOUTH CAROLINA, priority 2017, dated 2021).

Test system: T47D
Conditions: fold change in gene expression, THZ1; cited from earlier work

Compound: CN(C)C/C=C/C(=O)Nc1ccc(C(=O)Nc2cccc(Nc3ncc(Cl)c(-c4c[nH]c5ccccc45)n3)c2)cc1 [THZ1]
- BAMBI T47D FC: −1.74
- CDKN1B T47D FC: −2.3
- CITED2 T47D FC: −2.71
- CYR61 T47D FC: −1.96
- DKK1 T47D FC: −1.09
- E2F8 T47D FC: −4.01
- ELF3 T47D FC: −1.22
- FADD T47D FC: −3.29
- FBXO5 T47D FC: −2.65
- MARS2 T47D FC: −2.3
- MOCS3 T47D FC: −3.86
- MYC T47D FC: −2.68
- NEDD9 T47D FC: −3.32
- PHLDA1 T47D FC: −3.81
- PIM3 T47D FC: −2.54
- PLK2 T47D FC: −2.48
- TRIB1 T47D FC: −2.31
- WEE1 T47D FC: −1.96
- ZNF217 T47D FC: −2.77
- ZNF627 T47D FC: −2.75
